Legend:
[1] = tested on: cerebral extracellular lactate; test: In vivo pharmacodynamics - lactate biosensors; design: species or system mouse; conditions: 100 mg/kg per os, AUC ratio vs vehicle
Experimental: Extracellular levels of lactate were monitored in vivo using lactate biosensors (Pinnacle Technology), according to the manufacturer's instructions. Cannulae were surgically implanted in mice cerebral cerebral motor cortex areas M1/M2 (coordinates: +1.94 mm (to bregma), lateral −1.4 mm (to mideline), ventral −1.0 mm (to dura)) 5-7 days before administration of the compounds. Drugs were administered per os as previously described, and cerebral levels of extracellular lactate were dynamically recorded for 6 hours. Mice were administered vehicle alone first, followed 3 hours later by vehicle or drug (10 or 100 mg/kg). Area Under the Curve (AUC) quantifying the fluctuations of extracellular lactate concentrations for each of the compound tested was calculated using Graphad Prism and the ratio of AUC after drug over Vehicle administration was calculated. Groups of 8 male mice were used for each condition.
To measure biological effect of lead molecules in vivo in the brain, lactate levels were quantified after administration of the drug by using lactate biosensors implanted in the cortex of freely moving mice.

[2] = In vivo pharmacokinetics (microdialysis of prefrontal cortex and plasma); design: species or system mouse; conditions: gavage 100 mg/kg; therapeutic range 100 nM to 1 uM
Experimental: Mice were anesthetized using isoflurane (2% and 800 mL/min 02). Before surgery, Finadyne (1 mg/kg, s.c.) was administered for analgesia during surgery and the post-surgical recovery period. A mixture of bupivacaine and epinephrine was used for local anesthesia of the incision site of the periost of the skull.
The animals were placed in a stereotaxic frame (Kopf instruments, USA). MetaQuant microdialysis probes with a 3 mm exposed polyacrylonitrile membrane (MQ-PAN 3/3, Brainlink, the Netherlands) were implanted into the prefrontal cortex (coordinates for the tip of the probe: AP=+2.0 mm (to bregma), lateral=−0.7 mm (to midline), ventral=−3.3 mm (to dura), with the incisor bar set at 0.0 mm and an angle of 8°). All coordinates were based on “The mouse brain in stereotaxic coordinates” by Paxinos and Franklin (2004). The probes were attached to the skull with a stainless steel screw and dental cement (Fuji Plus Capsules, Henry Schein, the Netherlands).
In the same surgical procedure, a catheter was placed into the jugular vein to accommodate blood sampling. An indwelling cannula was inserted into the right jugular vein, and exteriorized through an incision on top of the skull. […]
PK was measured for GP-04, GP-05, GP-07, GP-R1 and GP-P1 in the prefrontal cortex and plasma of wild type C56Bl/6 mice by CRO Brainsonline.

primary mouse astrocytes = test: Extracellular lactate quantification, Example 2; assay type: cell-based; conditions: Astrocyte, 3 nM to 30 μM, 1.5 h, read-out: EC50 release of lactate
Experimental: Primary cultures of cerebrocortical astrocytes were obtained from 1 to 2-day-old OF1 mouse pups (Charles River). Briefly, cortices were isolated and minced in small pieces under a dissecting microscope. The cells were incubated for 30 min at 37° C. in a solution containing 20 U/ml papain, 1 mM L-cysteine and 10 kU/ml DNase I. After dissociation, papain activity was stopped by the addition of fetal calf serum (FCS). Single-cell suspension was then obtained by mechanical dissociation, which consisted in cells trituration in a DMEM D7777 medium supplemented with 44 mm NaHCO3, 10 ml/L antibiotic/antimycotic solution and 10% FCS. […]
Secretion of L-lactate was measured in the extracellular medium of 96-well plated astrocytes after 90 min stimulation (at 37° C., in 5% CO2/95% air conditions) with Vehicle (DMSO), the compounds of the invention (100 nM to 100 μM) or positive control. […] To quantify lactate concentrations in the extracellular medium, 200 μl of a 0.2M Glycine-semicarbazide buffer (pH 10) containing 3 mM NAD and 14 U/ml LDH was added to each well of a 96-well plate containing 30 μl aliquots of extracellular medium. […] Fluorescence intensity (340 nm excitation/450 nm emission), which represents the amount of NADH produced, was measured, and lactate concentration values were determined relative to a standard curve of L-lactate concentrations. […]

levels in the prefrontal cortex [2] | EC50 (primary mouse astrocytes) [nM] | Compound | cerebral lactate [1]
 |  | N#Cc1ccc(C(=O)N2CCC(Nc3ncnc4c3CCC4)C2)cc1 (stereo not drawn) [T636-2387] | Significant increase
at therapeutic range |  | COc1cc(C)c(Cl)cc1S(=O)(=O)NCc1ccncc1 [T5580243] | Significant increase
 | 590 | Cc1ccccc1NC(=O)C1CCCN(c2ncnc3oc(C)c(C)c23)C1 (stereo not drawn) [F228-0422] | 
need chemical improvement |  | CC(=O)N1CCc2sc(S(=O)(=O)N3CCN(c4ccccc4C)CC3)cc2C1 [P025-0159] | Significant increase
